Source: patent publication US9532961B2, “Method and kit for administering γ-glutamyl-D-cysteine for the prevention of reperfusion injury following ischemic stroke” (Rosalind Franklin University of Medicine and Science, priority 2005, dated 2017)
Entries after “also recorded” stand apart in the source; their conditions may differ.

Key:
heart and kidney = heart and kidney (refs. 29, 45); cited from earlier work
Na/Ca exchange = target: T1, Na/Ca exchange (Homo sapiens, UniProt P32418); settings: cardiac and renal tissues (ref. 26); cited from earlier work
T1 construct: host or cells: cardiac and renal tissues (as cited)

[1] = test system: cultured bovine blood-brain barrier endothelial cells; assay: Intracellular calcium (Fluo-4 fluorescence) in cultured blood-brain barrier cells under simulated ischemia-reperfusion; assay type: cell-based; settings: 20 μM KB-R7943 (reverse Na/Ca exchange inhibition), methanesulphonate
Description: FIG. 4 is a bar graph of data showing that when cerebral capillary endothelial cells are exposed to ischemic conditions, intracellular calcium concentration increases and remains elevated during reperfusion; the elevation in intracellular calcium is prevented by pharmacological inhibition of the Na/H antiporter. Cultured bovine blood-brain barrier cells were treated as described above (FIG. 2). […] The rise in intracellular calcium observed during reperfusion was prevented by inhibiting Na/H antiport (100 μM DMA). *P<0.05 compared to control. +P<0.05 compared to reperfusion. Values are mean±SD. Intracellular calcium was measured with fluorescent imaging, using Fluo-4.
FIG. 5 is a bar graph of data showing that when cerebral capillary endothelial cells are exposed to ischemic conditions, intracellular calcium concentration increases and remains elevated during reperfusion; the elevation in intracellular calcium is prevented by pharmacological inhibition of reverse movement of the Na/Ca exchanger. Cultured bovine blood-brain barrier cells were treated as described above (FIG. 2). […] The rise in intracellular calcium observed during reperfusion was prevented by inhibiting reverse movement of Na/Ca exchange (20 μM KB-R7943). *P<0.05 compared to control. +P<0.05 compared to reperfusion. Values are mean±SD. Intracellular calcium was measured with fluorescent imaging, using Fluo-4. […]

CS(=O)(=O)O.N=C(N)SCCc1ccc(OCc2ccc([N+](=O)[O-])cc2)cc1 [KB-R7943, 2-[2-[4-(4-nitrobenzyloxy)phenyl]ethyl]isothiourea methanesulphonate]
cytoprotection under conditions of ischemia and reperfusion (heart and kidney): cytoprotective
direction selectivity of Na/Ca exchange inhibition (Na/Ca exchange): greater affinity for suppressing movement in the reverse direction
effect on Na/Ca exchange (Na/Ca exchange): inhibits Na/Ca exchange
rise in intracellular calcium observed during reperfusion [1]: prevented; also recorded: inhibits the rise in intracellular calcium
